target: T1, human OX2R (Homo sapiens, UniProt O43614); test: IPOne (IP-1) orexin receptor agonist assay in CHO cells expressing human OX2R; conditions: CHO, hOX2R IP-One; percentage of mean max effect of a reference compound at 1 uM with 100% activity
T1 sequence (O43614 1-444): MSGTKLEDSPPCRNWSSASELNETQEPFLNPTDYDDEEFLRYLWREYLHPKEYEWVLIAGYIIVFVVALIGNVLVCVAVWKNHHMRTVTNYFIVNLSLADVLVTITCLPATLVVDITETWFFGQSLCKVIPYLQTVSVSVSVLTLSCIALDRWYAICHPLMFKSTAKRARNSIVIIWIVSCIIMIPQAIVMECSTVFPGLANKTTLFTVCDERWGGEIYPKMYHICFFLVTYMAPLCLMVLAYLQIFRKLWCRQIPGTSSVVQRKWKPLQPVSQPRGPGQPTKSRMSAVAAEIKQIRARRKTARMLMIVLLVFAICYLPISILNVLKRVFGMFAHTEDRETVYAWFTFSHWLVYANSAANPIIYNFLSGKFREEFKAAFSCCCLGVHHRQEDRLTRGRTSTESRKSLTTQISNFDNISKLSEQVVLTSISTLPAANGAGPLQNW
Description: In atypical experiment, the OX1 and OX2 receptor agonist activity is determined in accordance with the following general experimental method. Chinese hamster ovary (CHO) cells expressing human OX1R and/or the human OX2R were grown in Iscove's modified DMEM containing glutaMAX™, 1% G418, 100 U/mL penicillin, 100 μg/mL streptomycin and 10% heat-inactivated qualified fetal bovine serum (FBS). […] During this incubation, IP-one detection reagents were prepared (38:1:1 lysis buffer:D2:AB-cryptate reagents).
For each compound, data were fit to a four parameter logistic fit (ActivityBase software) and the EC50 was reported as the inflection point of the resulting curve.

Row | Molecule | Emax [%]
1 | C[C@@H]1C[C@H](NS(C)(=O)=O)C2COC3CCC(CC3)c3nc(ccc3C(F)(F)F)N(C)CCCOC(=O)N21 (stereo partly drawn) [Example 94, N-((2^1S,2^4S,5^2R,5^3S,5^5R)-5^5,1^1-dimethyl-6-oxo-1^3-(trifluoromethyl)-3,7-dioxa-11-aza-1(2,6)-pyridina-5(2,1)-pyrrolidina-2(1,4)-cyclohexanacycloundecaphane-5^3-yl)methanesulfonamid] | 37.5
2 | COC[C@@H]1C[C@H](NS(C)(=O)=O)C2COC3CCC(CC3)c3cc(C(F)(F)F)cc(n3)OCCCOC(=O)N21 (stereo partly drawn) [Example 83, N-((2^1S,2^4S,5^2R,5^3S,5^5S)-5^5-(methoxymethyl)-6-oxo-1^4-(trifluoromethyl)-3,7,11-trioxa-1(2,6)-pyridina-5(2,1)-pyrrolidina-2(1,4)-cyclohexanacycloundecaphane-5^3-yl)methanesulfonamide] | 102
3 | C[C@@H]1C[C@H](NS(C)(=O)=O)C2COC3CCC(CC3)c3cc(C(F)F)cc(n3)OCCCOC(=O)N21 (stereo partly drawn) [Example 86, N-((2^1S,2^4S,5^2R,5^3S,5^5R)-1^4-(difluoromethyl)-5^5-methyl-6-oxo-3,7,11-trioxa-1(2,6)-pyridina-5(2,1)-pyrrolidina-2(1,4)-cyclohexanacycloundecaphane-5^3-yl)methanesulfonamide] | 101
4 | C[C@@H]1C[C@H](NS(=O)(=O)N(C)C)[C@@H]2COC3CCC(CC3)c3cccc(c3)CCCCOC(=O)N12 [Example 22, N′-((2^1S,2^4S,5^2R,5^3S,5^5R)-5^5-methyl-6-oxo-3,7-dioxa-5(2,1)-pyrrolidina-1(1,3)-benzena-2(1,4)-cyclohexanacycloundecaphane-5^3-yl)-N,N-dimethysulfamide] | 102
5 | CN(C)C[C@@H]1C[C@H](NS(C)(=O)=O)C2COC3CCC(CC3)c3cc(C(F)F)cc(n3)OCCCOC(=O)N21 (stereo partly drawn) [Example 100, N-((2^1S,2^4S,5^2R,5^3S,5^5S)-1^4-(difluoromethyl)-5^5-((dimethylamino)methyl)-6-oxo-3,7,11-trioxa-1(2,6)-pyridina-5(2,1)-pyrrolidina-2(1,4)-cyclohexanacycloundecaphane-5^3-yl)methanesulfonamide] | 102
6 | C[C@@H]1C[C@H](NS(C)(=O)=O)C2COC3CCC(CC3)c3cccc(c3)OCCCCC(=O)N21 (stereo partly drawn) [Example 19, N-((2^1S,2^4S, 5^2R,5^3S,5^5R)-5^5-methyl-6-oxo-3,11-dioxa-5(2,1)-pyrrolidina-1(1,3)-benzena-2(1,4)-cyclohexana-cyclounde-caphane-5^3-yl) methanesulfonamide] | 101
7 | CC(C)Oc1ccc2cc1C1CCC(CC1)OCC1[C@@H](NS(C)(=O)=O)C[C@@H](C)N1C(=O)OCCCO2 (stereo partly drawn) [Example 63, N-((2^1S,2^4S,5^2R,5^3S,5^5R)-1^6-isopropoxy-5^5-methyl-6-oxo-3,7,11-trioxa-5(2,1)-pyrrolidina-1(1,3)-benzena-2(1,4)-cyclohexanacycloundecaphane-5^3-yl)methanesulfonamide] | 93.1
8 | CS(=O)(=O)N[C@H]1C[C@@H](CO)N2C(=O)OCCOc3ccc(C(F)(F)F)c(n3)[C@H]3CC[C@H](CC3)OC[C@@H]12 [Example 96, N-((2^1R,2^4R,5^2R,5^3S,5^5S)-5^5-(hydroxymethyl)-6-oxo-1^3-(trifluoromethyl)-3,7,10-trioxa-1(2,6)-pyridina-5(2,1)-pyrrolidina-2(1,4)-cyclohexanacyclodecaphane-5^3-yl)methanesulfonamide] | 100
9 | C[C@@H]1C[C@H](NS(C)(=O)=O)C2COC3CCC(CC3)c3ccc(C(F)(F)F)c(c3)OCCCOC(=O)N21 (stereo partly drawn) [Example 52, N-((2^1S,2^4S,5^2R,5^3S,5^5R)-5^5-methyl-6-oxo-1^4-(trifluoromethyl)-3,7,11-trioxa-5(2,1)-pyrrolidina-1(1,3)-benzena-2(1,4)-cyclohexanacycloundecaphane-5^3-yl)methanesulfonamide] | 98.4
10 | C[C@@H]1C[C@H](NS(C)(=O)=O)C2COC3CCC(CC3)c3cc(cc(C(F)(F)F)c3)OCCCOC(=O)N21 (stereo partly drawn) [Example 49, N-((2^1S,2^4S, 5^2R,5^3S,5^5R)-5^5-methyl-6-oxo-1^5-(trifluoro-methyl)-3,7,11-trioxa-5(2,1)-pyrrolidina-1(1,3)-benzena-2(1,4)-cyclohexana-cyclounde-caphane-5^3-yl)methane-sulfonamide] | 101
11 | C[C@@H]1C[C@H](NS(C)(=O)=O)C2COC3CCC(CC3)c3cc(F)cc(c3F)OCCCOC(=O)N21 (stereo partly drawn) [Example 48, N-((2^1S,2^4S, 5^2R,5^3S,5^5R)-1^2,1^5-difluoro-5^5-methyl-6-oxo-3,7,11-trioxa-5(2,1)-pyrrolidina-1(1,3)-benzena-2(1,4)-cyclohexana-cyclounde-caphane-5^3-yl)methane-sulfonamide] | 101
12 | C[C@@H]1C[C@H](NS(C)(=O)=O)C2COC3CCC(CC3)c3ccc(OC(F)(F)F)c(n3)OCCOC(=O)N21 (stereo partly drawn) [Example 72, N-((2^1S,2^4S,5^2R,5^3S,5^5R)-5^5-methyl-6-oxo-1^5-(trifluoromethoxy)-3,7,10-trioxa-1(2,6)-pyridina-5(2,1)-pyrrolidina-2(1,4)-cyclohexanacyclodecaphane-5^3-yl)methanesulfonamid] | 102
13 | C[C@@H]1C[C@H](NS(C)(=O)=O)C2COC3CCC(CC3)c3ccc(F)c(n3)OCCCOC(=O)N21 (stereo partly drawn) [Example 57, N-((2^1S,2^4S,5^2R,5^3S,5^5R)-1^5-fluoro-5^5-methyl-6-oxo-3,7,11-trioxa-1(2,6)-pyridina-5(2,1)-pyrrolidina-2(1,4)-cyclohexanacycloundecaphane-5^3-yl)methanesulfonamide] | 102
14 | C[C@@H]1C[C@H](NS(C)(=O)=O)C2COC3CCC(CC3)c3ccc(OC(F)(F)F)c(n3)OCCCOC(=O)N21 (stereo partly drawn) [Example 73, N-((2^1S,2^4S,5^2R,5^3S,5^5R)-5^5-methyl-6-oxo-1^5-(trifluoromethoxy)-3,7,11-trioxa-1(2,6)-pyridina-5(2,1)-pyrrolidina-2(1,4)-cyclohexanacycloundecaphane-5^3-yl)methanesulfonamide] | 100
15 | C[C@@H]1C[C@H](NS(=O)(=O)N(C)C)[C@@H]2COC3CCC(CC3)c3ccccc3CCOC(=O)N12 [Example 4, N′-((2′R,2^4R,5^2R,5^3S,5^5R)-5^5-methyl-6-oxo-3,7-dioxa-5(2,1)-pyrrolidina-1(1,2)-benzena-2(1,4)-cyclohexanacyclononaphane-5^3-yl)-N,N-dimethyl-sulfamide] | 101

same assay, conditions: hOX2R IP-One; percentage of mean max effect of a reference compound at 1 uM with 100% activity

Row | Molecule | Emax (%)
16 | CS(=O)(=O)NC1CCCN2C(=O)CCCOc3cccc(c3)C3CCC(C3)OCC12 (single isomer, unassigned) [Example 35, N-((2^1S,2^3R,5^2R,5^3S)-6-oxo-3,10-dioxa-5(2,1)-piperidina-1(1,3)-benzena-2(1,3)-cyclopentanacyclodecaphane-5^3-yl)methanesulfonamide] | 100.1
17 | CN(C)S(=O)(=O)NC1CCCN2C(=O)OCCc3ccccc3C3CCC(CC3)OCC12 (single isomer, unassigned) [Example 39, N′-((2^1S,2^4S,5^2R,5^3S)-6-oxo-3,7-dioxa-5(2,1)-piperidina-1(1,2)-benzena-2(1,4)-cyclohexanacyclononaphane-5^3-yl)-N,N-dimethyl-sulfamide] | 4.4
18 | N-((2^1S,2^4S,5^2R,5^3S,5^5R)-1^5- fluoro-1^4-methoxy-5^5-methyl- 6-oxo-3,7,10-trioxa-1(2,6)- pyridina-5(2,1)-pyrrolidina- 2(1,4)-cyclohexanacyclode caphane-5^3-yl)methane sulfonamide [Example 74] | 110.2

Reference: patent US20240002397A1, “3-AMINO PYRROLIDINE AND PIPERIDINE MACROCYCLIC OREXIN RECEPTOR AGONISTS” (Merck Sharp & Dohme LLC, priority 2020, published 2024)
